The subject of assay [1] is wheat plants. In words: Ethephon-induced flag leaf epinasty of wheat plants after spike heading. Type of assay: in vivo, wheat (Triticum turgidum var. 'Gdera'). Conditions: Ethephon 750 μL L^−1 spray alone. The protocol: (1) Abscission—This is a very sensitive model system for studying the effects of plant hormones. Ethylene induces the process of abscission, while auxin delays it. In the laboratory the experimental system is based on plant organ explants, which include the abscission zone. Abscission is induced by exposure to ethylene and at the termination of the experiment the number of abscised organs, usually either leaf blades or petioles are counted and the fraction of abscission is calculated. In the case of fruit, the decrease in fruit retention force is analyzed. In cotton, when WS-CPD (the ethylene-action antagonist herein disclosed) is tested, the whole plants or explants are pretreated by spraying with the antagonist, dissolved in a phosphate buffer solution (10-20 mM, pH 7.0) including 0.1% commercially available Kinetic™ as surfactant, and left to incubate for a predetermined time, usually between 6 and 24 h. […] At the end of the experiment the percentage of abscission is determined. […] At the end of the experiment a dimethylsulfoxide (DMSO) extract of the plant tissue is prepared, and the chlorophyll content of the extract is determined by spectrophotometric analysis. […] The extent of ethylene-induced epinasty of leaves is determined by measuring the change of the angle between the petiole and the stem shoot or blade. […]

For assay [2], the system named is wheat plants. As to the kind of experiment: Wheat grain weight at the milky stages after Ethephon treatment. Type of assay: in vivo, wheat (Triticum turgidum var. 'Gdera'). The note with it: Ethephon 750 μL L^−1, sandy soil. The protocol: (§1) (1) Abscission—This is a very sensitive model system for studying the effects of plant hormones. Ethylene induces the process of abscission, while auxin delays it. In the laboratory the experimental system is based on plant organ explants, which include the abscission zone. Abscission is induced by exposure to ethylene and at the termination of the experiment the number of abscised organs, usually either leaf blades or petioles are counted and the fraction of abscission is calculated. In the case of fruit, the decrease in fruit retention force is analyzed. In cotton, when WS-CPD (the ethylene-action antagonist herein disclosed) is tested, the whole plants or explants are pretreated by spraying with the antagonist, dissolved in a phosphate buffer solution (10-20 mM, pH 7.0) including 0.1% commercially available Kinetic™ as surfactant, and left to incubate for a predetermined time, usually between 6 and 24 h. The plants or explants are then further exposed for 24 h to ethylene gas (5 to 20 μL L^−1). The plants or explants are then ventilated and incubated for the required time under controlled conditions. At the end of the experiment the percentage of abscission is determined. (2) Chlorophyll degradation—This is a standard model for studying senescence. Plant material (whole plants, excised leaves or leaf discs) are pretreated. In cotton, tobacco and wheat, when WS-CPD is tested, the whole plants or explants are pretreated by spraying with the antagonist, dissolved in phosphate buffer solution (10-20 mM, pH 7.0) including 0.1% commercially available Kinetic™ surfactant, and left to incubate for a predetermined time, usually between 6 and 241. The plants or explants are then further exposed for 24 h to ethylene gas (1 to 100 μL L^−1), or sprayed with Ethephon™ (wheat; 250 to 750 μL L^−1). The plants or explants are then ventilated and incubated for the required time under controlled conditions. At the end of the experiment a dimethylsulfoxide (DMSO) extract of the plant tissue is prepared, and the chlorophyll content of the extract is determined by spectrophotometric analysis. The chlorophyll content is reported either on a fresh, dry weight basis, or on a surface area basis. (3) Epinasty—This is also one of the classical methods for studying ethylene effects in plants. The extent of ethylene-induced epinasty of leaves is determined by measuring the change of the angle between the petiole and the stem shoot or blade. After exposure of the intact plant to ethylene, the upright grown leaves bend downward. The increase in the angle values (degrees) between petiole and the stem is used as a measure of the effect of the ethylene. When WS-CPD is tested on cotton and wheat plants, the whole plants are pretreated by spraying with the antagonist dissolved in phosphate buffer solution (10-20 mM, pH 7.6) including 0.1% Kinetic™ as surfactant, and left to incubate for a predetermined time, usually between 6 and 24 h. The plants are then further exposed for 24 h to ethylene gas (cotton, 5 to 10 μL L^−1), or sprayed with Ethephon™ (wheat, 250 to 750 μL L^−1). The plants are then ventilated and incubated for the required time under controlled conditions. The epinastic effect is expressed by measuring the degree values of the downward curvature between the blade and petiole (cotton, FIGS. 1-3) or between the blade and the stem (wheat, FIGS. 31 and 32). (4) Wheat Grain yield—This is a common test of the effects of exposure of monocot plants either to environmental stresses such as drought that induce senescence by increasing endogenous ethylene production. Excessive internal or external ethylene will accelerate senescence which will lead to reduced grain yield. In this project the intact plants were grown in the greenhouse up to the spike hading at milky stage I and II. The plants were then sprayed with the dissolved WS-CPD in phosphate buffer solution (10 mM, pH 7.6) including 0.1% Kinetic™ as surfactant. Young Cotton Seedlings […]

In assay [3] the test system is wheat plants. As to the kind of experiment: Ethephon-induced chlorophyll degradation in wheat leaves, glumes and chaffs. It is filed as in vivo, wheat (Triticum turgidum var. 'Gdera'). Conditions: for reduction of chlorophyll content: chaffes; for reduction of chlorophyll content / reduction in chlorophyll content: milky stage I; for decrease of chlorophyll content: Ethephon 250 and 750 μL L^−1 at milky stage I, after 5-6 days; for reduction in chlorophyll content: glumes. The protocol: as §1

In assay [4] the test system is young cotton leaf explants. As to the kind of experiment: Ethylene-induced petiole abscission of young cotton leaf explants. It is filed as in vivo, cotton (Gossyium hirsutum barbadense L.). Conditions: ethylene alone. The protocol: (1) Abscission—This is a very sensitive model system for studying the effects of plant hormones. Ethylene induces the process of abscission, while auxin delays it. In the laboratory the experimental system is based on plant organ explants, which include the abscission zone. Abscission is induced by exposure to ethylene and at the termination of the experiment the number of abscised organs, usually either leaf blades or petioles are counted and the fraction of abscission is calculated. In the case of fruit, the decrease in fruit retention force is analyzed. In cotton, when WS-CPD (the ethylene-action antagonist herein disclosed) is tested, the whole plants or explants are pretreated by spraying with the antagonist, dissolved in a phosphate buffer solution (10-20 mM, pH 7.0) including 0.1% commercially available Kinetic™ as surfactant, and left to incubate for a predetermined time, usually between 6 and 24 h. The plants or explants are then further exposed for 24 h to ethylene gas (5 to 20 μL L^−1). The plants or explants are then ventilated and incubated for the required time under controlled conditions. At the end of the experiment the percentage of abscission is determined. (2) Chlorophyll degradation—This is a standard model for studying senescence. Plant material (whole plants, excised leaves or leaf discs) are pretreated. In cotton, tobacco and wheat, when WS-CPD is tested, the whole plants or explants are pretreated by spraying with the antagonist, dissolved in phosphate buffer solution (10-20 mM, pH 7.0) including 0.1% commercially available Kinetic™ surfactant, and left to incubate for a predetermined time, usually between 6 and 241. […] At the end of the experiment a dimethylsulfoxide (DMSO) extract of the plant tissue is prepared, and the chlorophyll content of the extract is determined by spectrophotometric analysis. […] The extent of ethylene-induced epinasty of leaves is determined by measuring the change of the angle between the petiole and the stem shoot or blade. […]

The subject of another assay is wheat seedlings. As to the kind of experiment: Third leaf growth of young wheat seedlings exposed to ethylene. It is filed as in vivo, wheat (Triticum turgidum var. 'Gdera'). Conditions: for inhibition of growth of the third leaf: additional experiment.
In another assay the test system is tobacco seedlings. In words: Ethylene-induced chlorophyll degradation in tobacco seedling leaves. It is filed as in vivo, tobacco (Nicotiana tabacum var. 'Samsun'). Conditions: ethylene alone. The protocol: (1) Abscission—This is a very sensitive model system for studying the effects of plant hormones. Ethylene induces the process of abscission, while auxin delays it. In the laboratory the experimental system is based on plant organ explants, which include the abscission zone. Abscission is induced by exposure to ethylene and at the termination of the experiment the number of abscised organs, usually either leaf blades or petioles are counted and the fraction of abscission is calculated. In the case of fruit, the decrease in fruit retention force is analyzed. In cotton, when WS-CPD (the ethylene-action antagonist herein disclosed) is tested, the whole plants or explants are pretreated by spraying with the antagonist, dissolved in a phosphate buffer solution (10-20 mM, pH 7.0) including 0.1% commercially available Kinetic™ as surfactant, and left to incubate for a predetermined time, usually between 6 and 24 h. The plants or explants are then further exposed for 24 h to ethylene gas (5 to 20 μL L^−1). The plants or explants are then ventilated and incubated for the required time under controlled conditions. At the end of the experiment the percentage of abscission is determined. (2) Chlorophyll degradation—This is a standard model for studying senescence. Plant material (whole plants, excised leaves or leaf discs) are pretreated. In cotton, tobacco and wheat, when WS-CPD is tested, the whole plants or explants are pretreated by spraying with the antagonist, dissolved in phosphate buffer solution (10-20 mM, pH 7.0) including 0.1% commercially available Kinetic™ surfactant, and left to incubate for a predetermined time, usually between 6 and 241. The plants or explants are then further exposed for 24 h to ethylene gas (1 to 100 μL L^−1), or sprayed with Ethephon™ (wheat; 250 to 750 μL L^−1). The plants or explants are then ventilated and incubated for the required time under controlled conditions. At the end of the experiment a dimethylsulfoxide (DMSO) extract of the plant tissue is prepared, and the chlorophyll content of the extract is determined by spectrophotometric analysis. The chlorophyll content is reported either on a fresh, dry weight basis, or on a surface area basis. (3) Epinasty—This is also one of the classical methods for studying ethylene effects in plants. The extent of ethylene-induced epinasty of leaves is determined by measuring the change of the angle between the petiole and the stem shoot or blade. After exposure of the intact plant to ethylene, the upright grown leaves bend downward. The increase in the angle values (degrees) between petiole and the stem is used as a measure of the effect of the ethylene. […]

The values below come from patent publication US9363996B2, “Compositions and method for blocking ethylene response in field crops using 3-(cy-clopropyl-l-enyl)-propanoic salt” (Yissum Research Development Company of the Hebrew …, priority 2009, dated 2016).

As to `O=P(O)(O)CCCl` [Ethephon, reference compound], the flag leaf epinasty result in the assay with wheat plants [1] is given as “strong leaf epinasty”. Further, the figures for the “reduction of grain weight” value with wheat plants [2] (stage I) and in the assay on wheat plants [2] (stage II) were 4% and 18%, respectively. The “reduction of chlorophyll content” value is recorded as 33% with wheat plants [3] (Ethephon 250 μL L^−1) and 28% in the assay with wheat plants [3] (Ethephon 750 μL L^−1). Further, the “decrease of chlorophyll content” value in the assay with wheat plants [3] (flag leaf) is 16-21%; with wheat plants [3] (leaf II), 21-22%. The “reduction of the content of chlorophyll” value in the assay on wheat plants [3] (flag leaf, Ethephon 750 μL L^−1, milky stage II) was found to be 33%; in the assay on wheat plants [3] (leaf II, Ethephon 750 μL L^−1, milky stage II), 47%. Besides, the “chlorophyll lower compared with the untreated control spikes” value in the assay on wheat plants [3] (glumes and chaffs, Ethephon 750 μL L^−1, milky stage II) came out at 12%. Besides, the “reduction in chlorophyll content” value came out at 10% in the assay with wheat plants [3] (Ethephon 250 μL L^−1) and 40% in the assay on wheat plants [3] (Ethephon 750 μL L^−1).
Consider `C=C` [ethylene], for which the “rate of petiole abscission” value in assay [4] is recorded as “accelerated”. Further, the “inhibition of growth of the third leaf” value with wheat seedlings (ethylene 1.6 μL L^−1) is given as 20%; in the assay with wheat seedlings (ethylene 20 μL L^−1), 35%. In the assay on wheat seedlings (ethylene 1 μL L^−1, continuous exposure), the “length of the third leaf longer than air-control leaf” value worked out at 50%. Also, the results for the “inhibition of growth of the third leaf compared to air control” value in the assay with wheat seedlings (ethylene 10 μL L^−1) and in the assay with wheat seedlings (ethylene 100 μL L^−1) were 50% and 30%, respectively. Besides, the “reduction of chlorophyll content” value in the assay on tobacco seedlings (mature (lower) leaves) is 72%. Also, in the assay with tobacco seedlings (young (upper) leaves), the “decrease in chlorophyll content as compared with air-treated leaves” value turned out to be 17%.
